ChEMBL document CHEMBL3885881, “DrugMatrix”

Species on record: Rattus norvegicus
Assay: DrugMatrix - Regimen: Daily Repeat
Assay type: toxicity, organism-based, Sprague-Dawley
Set-up: regimen Daily Repeat, gender Male, age 6-8 weeks
Settings: in vivo, iv, vehicle 100 % SALINE; for ABSOLUTE BASOPHIL / ABSOLUTE EOSINOPHIL / ABSOLUTE LYMPHOCYTE / ABSOLUTE MONOCYTE / ABSOLUTE SEGMENTED NEUTROPHIL / BASOPHIL / EOSINOPHIL / ERYTHROCYTE COUNT / HEMATOCRIT / HEMOGLOBIN / LEUKOCYTE COUNT / LYMPHOCYTE / MEAN CORPUSCULAR HEMOGLOBIN / MEAN CORPUSCULAR HEMOGLOBIN CONCENTRATION / MEAN CORPUSCULAR VOLUME / MONOCYTE / NEUTROPHIL / NUCLEATED RED BLOOD CELLS / PLATELET COUNT: tissue Blood; for ALANINE AMINOTRANSFERASE / ALBUMIN / ALKALINE PHOSPHATASE / ASPARTATE AMINOTRANSFERASE / BLOOD UREA NITROGEN / CARBON DIOXIDE / CHLORIDE / CHOLESTEROL / CREATINE PHOSPHOKINASE / CREATININE / GLUCOSE / LACTATE DEHYDROGENASE / LIPASE / PHOSPHORUS / POTASSIUM / SODIUM / TOTAL BILIRUBIN / TOTAL PROTEIN / URIC ACID: tissue Plasma
[1] = 0 mg/kg, 72 h, dose level Control, time 3 day
[2] = 0 mg/kg, 120 h, dose level Control, time 5 day
[3] = 23 mg/kg, 72 h, dose level Low, time 3 day

In the case of `Nc1ccn([C@@H]2O[C@H](CO)[C@@H](O)[C@@H]2O)c(=O)n1` [CYTARABINE], the “ABSOLUTE BASOPHIL” value [1] is reported as 0 CELLS/uL, the “ABSOLUTE EOSINOPHIL” value [1] is reported as 0 CELLS/uL and the “ABSOLUTE LYMPHOCYTE” value [1] is reported as 7855.5 CELLS/uL. The “ABSOLUTE MONOCYTE” value [1] was 36.17 CELLS/uL, the “ABSOLUTE SEGMENTED NEUTROPHIL” value [1] was 575 CELLS/uL and the BASOPHIL [1] was 0%. The EOSINOPHIL [1] was 0%, the “ERYTHROCYTE COUNT” value [1] was 5.14 x10E6/uL and the HEMATOCRIT [1] was 33.22%. The HEMOGLOBIN [1] was 12.97 G/DL, the “LEUKOCYTE COUNT” value [1] was 8.47 x10E3/uL and the LYMPHOCYTE [1] was 93.17%. The “MEAN CORPUSCULAR HEMOGLOBIN” value [1] was 25.28 pg, the “MEAN CORPUSCULAR HEMOGLOBIN CONCENTRATION” value [1] was 39.05 G/DL and the “MEAN CORPUSCULAR VOLUME” value [1] was 64.75 fL. The MONOCYTE [1] was 0.33%, the NEUTROPHIL [1] was 6.5% and the “NUCLEATED RED BLOOD CELLS” value [1] was 0 /100WBC. For the same compound, the “PLATELET COUNT” value [1] was 1092 x10E3/uL, the “ALANINE AMINOTRANSFERASE” value [1] was 61.67 u/L and the ALBUMIN [1] was 4.03 G/DL. The “ALKALINE PHOSPHATASE” value [1] was 292.33 u/L, the “ASPARTATE AMINOTRANSFERASE” value [1] was 100.83 u/L and the “BLOOD UREA NITROGEN” value [1] was 11 mg/dL. The “CARBON DIOXIDE” value [1] was 34.67 mmol/L, the CHLORIDE [1] was 100.25 MEQ/L and the CHOLESTEROL [1] was 71.17 mg/dL. For the same compound, the “CREATINE PHOSPHOKINASE” value [1] was 554.5 u/L, the CREATININE [1] was 0.31 mg/dL and the GLUCOSE [1] was 151 mg/dL. The “LACTATE DEHYDROGENASE” value [1] was 88.67 u/L, the LIPASE [1] was 18.83 u/L and the PHOSPHORUS [1] was 10.42 mg/dL. The POTASSIUM [1] was 5.7 MEQ/L, the SODIUM [1] was 144.57 MEQ/L and the “TOTAL BILIRUBIN” value [1] was 0.17 mg/dL. The “TOTAL PROTEIN” value [1] was 5.8 G/DL, the “URIC ACID” value [1] was 0.52 mg/dL and the “ABSOLUTE BASOPHIL” value [2] was 0 CELLS/uL. The “ABSOLUTE EOSINOPHIL” value [2] was 53.33 CELLS/uL, the “ABSOLUTE LYMPHOCYTE” value [2] was 7739.83 CELLS/uL and the “ABSOLUTE MONOCYTE” value [2] was 74.83 CELLS/uL. The “ABSOLUTE SEGMENTED NEUTROPHIL” value [2] was 832 CELLS/uL, the BASOPHIL [2] was 0% and the EOSINOPHIL [2] was 0.67%. For the same compound, the “ERYTHROCYTE COUNT” value [2] was 5.55 x10E6/uL, the HEMATOCRIT [2] was 34.77% and the HEMOGLOBIN [2] was 13.62 G/DL. The “LEUKOCYTE COUNT” value [2] was 8.7 x10E3/uL, the LYMPHOCYTE [2] was 89.17% and the “MEAN CORPUSCULAR HEMOGLOBIN” value [2] was 24.6 pg. For the same compound, the “MEAN CORPUSCULAR HEMOGLOBIN CONCENTRATION” value [2] was 39.2 G/DL, the “MEAN CORPUSCULAR VOLUME” value [2] was 62.78 fL and the MONOCYTE [2] was 0.67%. The NEUTROPHIL [2] was 9.5%, the “NUCLEATED RED BLOOD CELLS” value [2] was 0 /100WBC and the “PLATELET COUNT” value [2] was 1096 x10E3/uL. The “ALANINE AMINOTRANSFERASE” value [2] was 50 u/L, the ALBUMIN [2] was 4.02 G/DL and the “ALKALINE PHOSPHATASE” value [2] was 271.17 u/L. For the same compound, the “ASPARTATE AMINOTRANSFERASE” value [2] was 84.17 u/L, the “BLOOD UREA NITROGEN” value [2] was 13.33 mg/dL and the “CARBON DIOXIDE” value [2] was 27 mmol/L. The CHLORIDE [2] was 99 MEQ/L, the CHOLESTEROL [2] was 68 mg/dL and the “CREATINE PHOSPHOKINASE” value [2] was 313.67 u/L. The CREATININE [2] was 0.21 mg/dL, the GLUCOSE [2] was 163 mg/dL and the “LACTATE DEHYDROGENASE” value [2] was 75.67 u/L. The LIPASE [2] was 11.5 u/L, the PHOSPHORUS [2] was 9.62 mg/dL and the POTASSIUM [2] was 5.45 MEQ/L. For the same compound, the SODIUM [2] was 143.1 MEQ/L, the “TOTAL BILIRUBIN” value [2] was 0.2 mg/dL and the “TOTAL PROTEIN” value [2] was 6.08 G/DL. The “URIC ACID” value [2] was 0.68 mg/dL, the “ABSOLUTE BASOPHIL” value [3] was 0 CELLS/uL and the “ABSOLUTE EOSINOPHIL” value [3] was 0 CELLS/uL. For the same compound, the “ABSOLUTE LYMPHOCYTE” value [3] was 6967 CELLS/uL, the “ABSOLUTE MONOCYTE” value [3] was 31.33 CELLS/uL and the “ABSOLUTE SEGMENTED NEUTROPHIL” value [3] was 568.33 CELLS/uL. The BASOPHIL [3] was 0%, the EOSINOPHIL [3] was 0% and the “ERYTHROCYTE COUNT” value [3] was 5.13 x10E6/uL. The HEMATOCRIT [3] was 33.67%, the HEMOGLOBIN [3] was 13.23 G/DL and the “LEUKOCYTE COUNT” value [3] was 7.57 x10E3/uL. For the same compound, the LYMPHOCYTE [3] was 92%, the “MEAN CORPUSCULAR HEMOGLOBIN” value [3] was 25.8 pg and the “MEAN CORPUSCULAR HEMOGLOBIN CONCENTRATION” value [3] was 39.3 G/DL. The “MEAN CORPUSCULAR VOLUME” value [3] was 65.53 fL, the MONOCYTE [3] was 0.33% and the NEUTROPHIL [3] was 7.67%. The “NUCLEATED RED BLOOD CELLS” value [3] was 0 /100WBC, the “PLATELET COUNT” value [3] was 1145.33 x10E3/uL and the “ALANINE AMINOTRANSFERASE” value [3] was 52 u/L. The ALBUMIN [3] was 4.23 G/DL, the “ALKALINE PHOSPHATASE” value [3] was 313.33 u/L and the “ASPARTATE AMINOTRANSFERASE” value [3] was 91.67 u/L. For the same compound, the “BLOOD UREA NITROGEN” value [3] was 11.67 mg/dL, the “CARBON DIOXIDE” value [3] was 32.33 mmol/L and the CHLORIDE [3] was 99.5 MEQ/L. For the same compound, the CHOLESTEROL [3] was 73 mg/dL, the “CREATINE PHOSPHOKINASE” value [3] was 427 u/L and the CREATININE [3] was 0.31 mg/dL. The GLUCOSE [3] was 163 mg/dL, the “LACTATE DEHYDROGENASE” value [3] was 93 u/L and the LIPASE [3] was 13.33 u/L. It also gave a PHOSPHORUS [3] of 11.2 mg/dL, a POTASSIUM [3] of 5.61 MEQ/L and an SODIUM [3] of 143.75 MEQ/L. The “TOTAL BILIRUBIN” value [3] was 0.1 mg/dL, the “TOTAL PROTEIN” value [3] was 6.17 G/DL and the “URIC ACID” value [3] was 0.83 mg/dL.
